Experimental findings from patent publication US10829481B2, “Benzimidazole derivatives as modulators of ROR-gamma” (Vitae Pharmaceuticals, LLC, priority 2016, dated 2020) are described below.

The target of assay [1] is recombinant RORγ Ligand Binding Domain (LBD) protein (Homo sapiens (Human), UniProt P51449). Put plainly: Radio-Ligand RORγ Binding Assay (Assay 1). The settings on record: competition with 25-hydroxy [26,27-3H]-cholesterol, SPA. The gist of the method: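 Scintillation proximity competition against 25-hydroxy [26,27-^3H]-cholesterol (8.6 nM solution) for 6×His-GST-tagged RORγ LBD (24 nM solution) in HEPES pH 7.4 with CHAPS, β-octylglucopyranoside and DTT; semi-log compound dilutions, ~1 h total at rt with poly-Lys YSi beads. IC50 from four-parameter fit; Ki derived from [RL] and radioligand KD.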
Chain of recombinant RORγ Ligand Binding Domain (LBD) protein (P51449 269-508): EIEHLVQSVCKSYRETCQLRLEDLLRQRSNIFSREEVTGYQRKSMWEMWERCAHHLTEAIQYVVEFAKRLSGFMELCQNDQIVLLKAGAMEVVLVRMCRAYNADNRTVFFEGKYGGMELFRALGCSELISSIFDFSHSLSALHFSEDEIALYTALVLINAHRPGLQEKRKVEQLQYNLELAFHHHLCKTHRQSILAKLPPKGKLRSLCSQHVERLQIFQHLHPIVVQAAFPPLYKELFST

The target of assay [2] is full-length RORγt in Jurkat cells (Homo sapiens (Human), UniProt P51449). Put plainly: RORγt 5×RORE Assay in Jurkat Cells (Assay 2). Type of assay: cell-based. The settings on record: 5×RORE Nanoluc luciferase reporter. (In a reporter assay the amount or activity of a reporter protein is the signal.)
Chain of full-length RORγt in Jurkat cells (P51449 other isoform, or with tags, fused parts or gaps): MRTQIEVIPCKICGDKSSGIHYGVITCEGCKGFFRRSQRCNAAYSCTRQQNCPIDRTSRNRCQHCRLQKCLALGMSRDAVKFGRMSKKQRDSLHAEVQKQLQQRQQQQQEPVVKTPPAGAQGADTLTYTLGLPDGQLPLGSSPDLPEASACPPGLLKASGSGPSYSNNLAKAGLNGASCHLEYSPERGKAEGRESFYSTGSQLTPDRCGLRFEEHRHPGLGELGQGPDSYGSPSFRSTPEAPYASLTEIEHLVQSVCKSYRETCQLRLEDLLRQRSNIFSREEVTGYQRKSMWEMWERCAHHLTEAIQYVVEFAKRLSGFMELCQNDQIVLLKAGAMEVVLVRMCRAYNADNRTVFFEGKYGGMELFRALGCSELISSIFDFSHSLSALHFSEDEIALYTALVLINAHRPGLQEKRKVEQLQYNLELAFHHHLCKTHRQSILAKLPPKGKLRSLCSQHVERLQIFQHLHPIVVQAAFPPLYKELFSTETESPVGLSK

As to `CCS(=O)(=O)c1ccc(CC(=O)Nc2ccc3c(c2)nc(C2CC2)n3Cc2cccc3c2OC(F)(F)O3)cc1` [I-9, N-(2-cyclopropyl-1-((2,2-difluorobenzo[d][1,3]dioxol-4-yl)methyl)-1H-benzo[d]imidazol-5-yl)-2-(4-(ethylsulfonyl)phenyl)acetamide], in assay [1], the Ki was less than 0.1 µM. In assay [2], this compound registered an IC50 of less than 0.1 µM.

On to `CCS(=O)(=O)c1ccc([C@H](CC(=O)O)NC(=O)c2ccc3c(c2)nc(C(F)(F)F)n3Cc2cccc3c2OC(F)(F)O3)cc1` [I-165, (S)-3-(1-((2,2-difluorobenzo[d][1,3]dioxol-4-yl)methyl)-2-(trifluoromethyl)-1H-benzo[d]imidazole-5-carboxamido)-3-(4-(ethylsulfonyl)phenyl)propanoic acid], for which, in assay [1], the Ki was less than 0.1 µM. The IC50 in assay [2] was more than 1 µM.

As for `CCS(=O)(=O)c1ccc([C@H](CO)NC(=O)c2ccc3c(c2)nc(C2(F)CC2)n3Cc2cccc3c2OC(F)(F)O3)nc1` [I-134.1, (R)-1-((2,2-difluorobenzo[d][1,3]dioxol-4-yl)methyl)-N-(1-(5-(ethylsulfonyl)pyridin-2-yl)-2-hydroxyethyl)-2-(1-fluorocyclopropyl)-1H-benzo[d]imidazole-5-carboxamide], the inhibitory constant (Ki) in assay [1] is less than 0.1 µM. Also, in assay [2], the IC50 was less than 0.1 µM.

Consider `CCS(=O)(=O)c1ccc(CNC(=O)c2ccc3c(c2)nc(C(F)(F)F)n3Cc2cccc3[nH]ncc23)cc1` [I-97, 1-((1H-indazol-4-yl)methyl)-N-(4-(ethylsulfonyl)benzyl)-2-(trifluoromethyl)-1H-benzo[d]imidazole-5-carboxamide], for which the Ki in assay [1] was less than 0.1 µM. In assay [2], this compound yielded an IC50 of less than 0.1 µM.

As for `CNS(=O)(=O)c1ccc(CNC(=O)c2ccc3c(c2)nc(C(F)(F)F)n3Cc2cccc3c2OC(F)(F)O3)cc1` [I-46, 1-((2,2-difluorobenzo[d][1,3]dioxol-4-yl)methyl)-N-(4-(N-methylsulfamoyl)benzyl)-2-(trifluoromethyl)-1H-benzo[d]imidazole-5-carboxamide], in assay [1], the Ki was less than 0.1 µM. The IC50 in assay [2] is less than 0.1 µM.

Regarding `CCS(=O)(=O)c1ccc(CNC(=O)c2ccc3c(c2)nc(C2CC2)n3Cc2cccc3c2OC(F)(F)O3)cc1` [I-26, 2-cyclopropyl-1-((2,2-difluorobenzo[d][1,3]dioxol-4-yl)methyl)-N-(4-(ethylsulfonyl)benzyl)-1H-benzo[d]imidazole-5-carboxamide], in assay [1], the Ki is less than 0.1 µM. This compound also gave an IC50 in assay [2] of less than 0.1 µM.

With `CCS(=O)(=O)c1ccc(CNC(=O)c2ccc3c(c2)nc(C(F)(F)F)n3Cc2cccc(OC)c2)cc1` [I-88, N-(4-(ethylsulfonyl)benzyl)-1-(3-methoxybenzyl)-2-(trifluoromethyl)-1H-benzo[d]imidazole-5-carboxamide], in assay [1], the Ki was less than 0.1 µM. Also, in assay [2], the IC50 is less than 0.1 µM.

On to `CCS(=O)(=O)c1ccc([C@H](O)C(=O)Nc2ccc3c(c2)nc(C(F)(F)F)n3Cc2cccc3c2OC(F)(F)O3)cc1` (mixture of isomers) [I-170.1, (S)-N-(1-((2,2-difluorobenzo[d][1,3]dioxol-4-yl)methyl)-2-(trifluoromethyl)-1H-benzo[d]imidazol-5-yl)-2-(4-(ethylsulfonyl)phenyl)-2-hydroxyacetamide and (R)-N-(1-((2,2-difluorobenzo[d][1,3]dioxol-4-yl)methyl)-2-(trifluoromethyl)-1H-benzo[d]imidazol-5-yl)-2-(4-(ethylsulfonyl)phenyl)-2-hydroxyacetamide], for which the Ki in assay [1] was less than 0.1 µM. In assay [2], this compound came in with an IC50 of less than 0.1 µM.

Take `CCS(=O)(=O)c1ccc([C@H](CC(=O)NC)NC(=O)c2ccc3c(c2)nc(C(F)(F)F)n3Cc2cccc3c2OC(F)(F)O3)cc1` [I-167, (S)-1-((2,2-difluorobenzo[d][1,3]dioxol-4-yl)methyl)-N-(1-(4-(ethylsulfonyl)phenyl)-3-(methylamino)-3-oxopropyl)-2-(trifluoromethyl)-1H-benzo[d]imidazole-5-carboxamide]: in assay [1], the Ki is less than 0.1 µM. The compound further registered an IC50 in assay [2] of less than 0.1 µM.

Turning to `CS(=O)(=O)N1CCC(CC(=O)Nc2ccc3c(c2)nc(C(F)(F)F)n3Cc2cccc3c2OC(F)(F)O3)CC1` [I-10, N-(1-((2,2-difluorobenzo[d][1,3]dioxol-4-yl)methyl)-2-(trifluoromethyl)-1H-benzo[d]imidazol-5-yl)-2-(1-(methylsulfonyl)piperidin-4-yl)acetamide], the Ki in assay [1] is less than 0.1 µM. In assay [2], this compound yielded an IC50 of more than 1 µM.

Turning to `CCS(=O)(=O)c1ccc(CNC(=O)c2ccc3c(c2)nc(C(F)(F)F)n3Cc2nc(C)cc(C(F)(F)F)n2)cc1` [I-138, N-(4-(ethylsulfonyl)benzyl)-1-((4-methyl-6-(trifluoromethyl)pyrimidin-2-yl)methyl)-2-(trifluoromethyl)-1H-benzo[d]imidazole-5-carboxamide], the Ki in assay [1] was less than 0.1 µM. In assay [2], this compound gave an IC50 of 0.1 to 1 µM.

On to `CCS(=O)(=O)c1ccc(CNC(=O)c2ccc3c(c2)nc([C@H](C)OC)n3Cc2cccc3c2OC(F)(F)O3)cc1` (mixture of isomers) [I-49.1, (S)-1-((2,2-difluorobenzo[d][1,3]dioxol-4-yl)methyl)-N-(4-(ethylsulfonyl)benzyl)-2-(1-methoxyethyl)-1H-benzo[d]imidazole-5-carboxamide and (R)-1-((2,2-difluorobenzo[d][1,3]dioxol-4-yl)methyl)-N-(4-(ethylsulfonyl)benzyl)-2-(1-methoxyethyl)-1H-benzo[d]imidazole-5-carboxamide], for which the Ki in assay [1] was less than 0.1 µM. Also, the IC50 in assay [2] was less than 0.1 µM.

Consider `CCS(=O)(=O)c1ccc(CNC(=O)c2ccc3c(c2)nc([C@@H]2C[C@H]2C(=O)OC)n3Cc2cccc3c2OC(F)(F)O3)cc1` [I-58, methyl(1R,2R)-2-(1-((2,2-difluorobenzo[d][1,3]dioxol-4-yl)methyl)-5-((4-(ethylsulfonyl)benzyl)carbamoyl)-1H-benzo[d]imidazol-2-yl)cyclopropane-1-carboxylate], for which the Ki in assay [1] is less than 0.1 µM. The compound further registered an IC50 in assay [2] of 0.1 to 1 µM.

For `CCS(=O)(=O)c1ccc(CNC(=O)c2ccc3c(c2)nc(C2(F)CC2)n3Cc2cccc3c2OC(F)(F)O3)cc1` [I-27, 1-((2,2-difluorobenzo[d][1,3]dioxol-4-yl)methyl)-N-(4-(ethylsulfonyl)benzyl)-2-(1-fluorocyclopropyl)-1H-benzo[d]imidazole-5-carboxamide], in assay [1], the Ki is less than 0.1 µM. Besides, the IC50 in assay [2] was less than 0.1 µM.

`CCS(=O)(=O)c1ccc(CNC(=O)c2ccc3c(c2)nc(C(F)(F)F)n3CC2CCN(c3ncc(F)cn3)CC2)cc1` [I-158, N-(4-(ethylsulfonyl)benzyl)-1-((1-(5-fluoropyrimidin-2-yl)piperidin-4-yl)methyl)-2-(trifluoromethyl)-1H-benzo[d]imidazole-5-carboxamide]: the Ki in assay [1] was less than 0.1 µM. Besides, in assay [2], the IC50 was more than 1 µM.

For the compound `CS(=O)(=O)c1ccc(CNC(=O)c2ccc3c(c2)nc(C(F)F)n3Cc2cccc3c2OC(F)(F)O3)cc1` [I-50, 1-((2,2-difluorobenzo[d][1,3]dioxol-4-yl)methyl)-2-(difluoromethyl)-N-(4-(methylsulfonyl)benzyl)-1H-benzo[d]imidazole-5-carboxamide], in assay [1], the Ki was less than 0.1 µM. In addition, the IC50 in assay [2] is less than 0.1 µM.

For `CCS(=O)(=O)c1ccc([C@@H](CO)NC(=O)c2ccc3c(c2)nc(C(F)F)n3Cc2cccc3c2OC(F)(F)O3)nc1` [I-131.2, (S)-1-((2,2-difluorobenzo[d][1,3]dioxol-4-yl)methyl)-2-(difluoromethyl)-N-(1-(5-(ethylsulfonyl)pyridin-2-yl)-2-hydroxyethyl)-1H-benzo[d]imidazole-5-carboxamide], in assay [1], the Ki is less than 0.1 µM. This compound also yielded an IC50 in assay [2] of 0.1 to 1 µM.

Turning to `CCS(=O)(=O)c1ccc(CNC(=O)c2ccc3c(c2)nc(C(F)(F)F)n3Cc2ccc(OC(F)(F)F)cc2)cc1` [I-84, N-(4-(ethylsulfonyl)benzyl)-1-(4-(trifluoromethoxy)benzyl)-2-(trifluoromethyl)-1H-benzo[d]imidazole-5-carboxamide], the Ki in assay [1] was less than 0.1 µM. For the same compound, the IC50 in assay [2] was 0.1 to 1 µM.

As to `CCCS(=O)(=O)c1ccc(CNC(=O)c2ccc3c(c2)nc(C(F)(F)F)n3Cc2cccc3c2OC(F)(F)O3)cc1` [I-52, 1-((2,2-difluorobenzo[d][1,3]dioxol-4-yl)methyl)-N-(4-(propylsulfonyl)benzyl)-2-(trifluoromethyl)-1H-benzo[d]imidazole-5-carboxamide], the Ki in assay [1] was less than 0.1 µM. This compound returned an IC50 in assay [2] of less than 0.1 µM.

`CCS(=O)(=O)c1ccc(CNC(=O)c2ccc3c(c2)nc(C(F)(F)F)n3Cc2cccc3c2OC(F)(F)O3)cc1` [I-25, 1-((2,2-difluorobenzo[d][1,3]dioxol-4-yl)methyl)-N-(4-(ethylsulfonyl)benzyl)-2-(trifluoromethyl)-1H-benzo[d]imidazole-5-carboxamide]: the Ki in assay [1] is less than 0.1 µM. Also, the IC50 in assay [2] was less than 0.1 µM.

Regarding `CCS(=O)(=O)c1ccc([C@@H](CO)NC(=O)c2ccc3c(c2)nc(C(F)(F)F)n3Cc2cccc3c2OC(F)(F)O3)cc1` [I-11.2, (S)-1-((2,2-difluorobenzo[d][1,3]dioxol-4-yl)methyl)-N-(1-(4-(ethylsulfonyl)phenyl)-2-hydroxyethyl)-2-(trifluoromethyl)-1H-benzo[d]imidazole-5-carboxamide], the Ki in assay [1] is less than 0.1 µM. This compound displayed an IC50 in assay [2] of less than 0.1 µM.

With `CS(=O)(=O)c1ccc(CNC(=O)c2ccc3c(c2)nc(C(F)(F)F)n3Cc2cccc3c2OC(F)(F)O3)cc1` [I-48, 1-((2,2-difluorobenzo[d][1,3]dioxol-4-yl)methyl)-N-(4-(methylsulfonyl)benzyl)-2-(trifluoromethyl)-1H-benzo[d]imidazole-5-carboxamide], in assay [1], the inhibition constant (Ki) is less than 0.1 µM. In assay [2], this compound gave an IC50 of less than 0.1 µM.

In general, Ki refers to a dissociation constant, usually derived from enzyme kinetics or from competition with a known ligand. As a reminder, the IC50 is the concentration that gives 50% inhibition.
